{"source": "patent US11452731B2", "about": "“Method of treating and preventing loss of cognition” (ENDORECHERCHE, INC., priority 2009, dated 2022)", "assay": "Clinical trial ERC-205: DHEA 50 mg daily versus placebo on hot flushes in postmenopausal women (Example 10)", "type": "in vivo", "settings": "50 mg, strata 50 to 70 hot flushes per week at screening", "method": "Postmenopausal women experiencing moderate or severe hot flushes per week (as determined by a two week diary) were randomized to receive a daily dose of either placebo or 50 mg DHEA. Fifty evaluable participants (25 patients per arm) were treated for four months with a daily assessment of hot flushes recorded in a diary completed by each participant.\nPostmenopausal women aged 40 to 70 years with moderate or severe hot flushes per week, as confirmed by a two-week screening hot flush diary were enrolled after signing informed consent. The protocol was approved by the Institutional Review Board (IRB) of Le Centre Hospitalier de l'Université Laval and by Health Canada.\nThe primary endpoint was the change from Baseline in the weekly frequency of moderate to severe hot flushes at Week 16, after four months of treatment. The objectives also included the change from Baseline in the weekly frequency of all hot flushes and the change from Baseline in the weekly weighted severity score.\nThe response endpoint is the patient's paper diary which was filled in daily to specify the number and type of hot flushes as follows:\nThe hot flush diary began as a Screening diary for two weeks prior to randomization whereby patients had to complete the diary daily, recording the number and severity of hot flushes. The patients had to record an average of 50 or more moderate or severe hot flushes per week over the two-week period to be eligible (i.e., at least 100 hot flushes documented on the two week Screening diary).\nOnce randomized, the patient completed eight, two-week hot flush diaries upon beginning study medication. The diaries had to be filled out on a daily basis. The first diary was completed over the first two weeks and be returned on the two week visit. The second two-week diary was completed over the next two weeks of the first four week treatment period and was returned at the four week visit. At 4, 8, 12 and 16 week visits, two two-week diaries for hot flushes were collected.", "key": {"[1]": {"settings": "Screening (mean of 2 w), baseline"}}, "data": [{"smiles": "C[C@]12CC[C@H](O)CC1=CC[C@@H]1[C@@H]2CC[C@]2(C)C(=O)CC[C@@H]12", "note": "[DHEA, dehydroepiandrosterone]", "values": [{"measurement": "NUMBER OF ALL HOT FLUSHES PER WEEK (MEAN)", "setting": "[1]", "result": 63.7}, {"measurement": "NUMBER OF MODERATE TO SEVERE HOT FLUSHES PER WEEK (MEAN)", "setting": "[1]", "result": 56.7}, {"measurement": "WEIGHTED SEVERITY SCORE OF HOT FLUSHES PER WEEK (MEAN)", "setting": "[1]", "result": 144.3}, {"measurement": "NUMBER OF ALL HOT FLUSHES PER WEEK (MEAN)", "setting": "Week 1", "result": 60.8}, {"measurement": "NUMBER OF MODERATE TO SEVERE HOT FLUSHES PER WEEK (MEAN)", "setting": "Week 1", "result": 54.2}, {"measurement": "WEIGHTED SEVERITY SCORE OF HOT FLUSHES PER WEEK (MEAN)", "setting": "Week 1", "result": 141.0}, {"measurement": "NUMBER OF ALL HOT FLUSHES PER WEEK (MEAN)", "setting": "Week 2", "result": 55.3}, {"measurement": "NUMBER OF MODERATE TO SEVERE HOT FLUSHES PER WEEK (MEAN)", "setting": "Week 2", "result": 49.0}, {"measurement": "WEIGHTED SEVERITY SCORE OF HOT FLUSHES PER WEEK (MEAN)", "setting": "Week 2", "result": 127.1}, {"measurement": "NUMBER OF ALL HOT FLUSHES PER WEEK (MEAN)", "setting": "Week 3", "result": 52.3}, {"measurement": "NUMBER OF MODERATE TO SEVERE HOT FLUSHES PER WEEK (MEAN)", "setting": "Week 3", "result": 46.5}, {"measurement": "WEIGHTED SEVERITY SCORE OF HOT FLUSHES PER WEEK (MEAN)", "setting": "Week 3", "result": 118.9}, {"measurement": "NUMBER OF ALL HOT FLUSHES PER WEEK (MEAN)", "setting": "Week 4", "result": 49.4}, {"measurement": "NUMBER OF MODERATE TO SEVERE HOT FLUSHES PER WEEK (MEAN)", "setting": "Week 4", "result": 44.0}, {"measurement": "WEIGHTED SEVERITY SCORE OF HOT FLUSHES PER WEEK (MEAN)", "setting": "Week 4", "result": 111.6}, {"measurement": "NUMBER OF ALL HOT FLUSHES PER WEEK (MEAN)", "setting": "Week 5", "result": 42.7}, {"measurement": "NUMBER OF MODERATE TO SEVERE HOT FLUSHES PER WEEK (MEAN)", "setting": "Week 5", "result": 38.3}, {"measurement": "WEIGHTED SEVERITY SCORE OF HOT FLUSHES PER WEEK (MEAN)", "setting": "Week 5", "result": 97.8}, {"measurement": "NUMBER OF ALL HOT FLUSHES PER WEEK (MEAN)", "setting": "Week 6", "result": 43.7}, {"measurement": "NUMBER OF MODERATE TO SEVERE HOT FLUSHES PER WEEK (MEAN)", "setting": "Week 6", "result": 39.8}, {"measurement": "WEIGHTED SEVERITY SCORE OF HOT FLUSHES PER WEEK (MEAN)", "setting": "Week 6", "result": 99.0}, {"measurement": "NUMBER OF ALL HOT FLUSHES PER WEEK (MEAN)", "setting": "Week 7", "result": 39.2}, {"measurement": "NUMBER OF MODERATE TO SEVERE HOT FLUSHES PER WEEK (MEAN)", "setting": "Week 7", "result": 34.7}, {"measurement": "WEIGHTED SEVERITY SCORE OF HOT FLUSHES PER WEEK (MEAN)", "setting": "Week 7", "result": 88.3}, {"measurement": "NUMBER OF ALL HOT FLUSHES PER WEEK (MEAN)", "setting": "Week 8", "result": 41.8}, {"measurement": "NUMBER OF MODERATE TO SEVERE HOT FLUSHES PER WEEK (MEAN)", "setting": "Week 8", "result": 38.1}, {"measurement": "WEIGHTED SEVERITY SCORE OF HOT FLUSHES PER WEEK (MEAN)", "setting": "Week 8", "result": 95.8}, {"measurement": "NUMBER OF ALL HOT FLUSHES PER WEEK (MEAN)", "setting": "Week 9", "result": 42.4}, {"measurement": "NUMBER OF MODERATE TO SEVERE HOT FLUSHES PER WEEK (MEAN)", "setting": "Week 9", "result": 38.5}, {"measurement": "WEIGHTED SEVERITY SCORE OF HOT FLUSHES PER WEEK (MEAN)", "setting": "Week 9", "result": 96.0}, {"measurement": "NUMBER OF ALL HOT FLUSHES PER WEEK (MEAN)", "setting": "Week 10", "result": 40.5}, {"measurement": "NUMBER OF MODERATE TO SEVERE HOT FLUSHES PER WEEK (MEAN)", "setting": "Week 10", "result": 36.6}, {"measurement": "WEIGHTED SEVERITY SCORE OF HOT FLUSHES PER WEEK (MEAN)", "setting": "Week 10", "result": 92.7}, {"measurement": "NUMBER OF ALL HOT FLUSHES PER WEEK (MEAN)", "setting": "Week 11", "result": 39.5}, {"measurement": "NUMBER OF MODERATE TO SEVERE HOT FLUSHES PER WEEK (MEAN)", "setting": "Week 11", "result": 35.6}, {"measurement": "WEIGHTED SEVERITY SCORE OF HOT FLUSHES PER WEEK (MEAN)", "setting": "Week 11", "result": 89.8}, {"measurement": "NUMBER OF ALL HOT FLUSHES PER WEEK (MEAN)", "setting": "Week 12", "result": 39.7}, {"measurement": "NUMBER OF MODERATE TO SEVERE HOT FLUSHES PER WEEK (MEAN)", "setting": "Week 12", "result": 35.8}, {"measurement": "WEIGHTED SEVERITY SCORE OF HOT FLUSHES PER WEEK (MEAN)", "setting": "Week 12", "result": 88.5}, {"measurement": "NUMBER OF ALL HOT FLUSHES PER WEEK (MEAN)", "setting": "Week 13", "result": 36.2}, {"measurement": "NUMBER OF MODERATE TO SEVERE HOT FLUSHES PER WEEK (MEAN)", "setting": "Week 13", "result": 32.8}, {"measurement": "WEIGHTED SEVERITY SCORE OF HOT FLUSHES PER WEEK (MEAN)", "setting": "Week 13", "result": 81.4}, {"measurement": "NUMBER OF ALL HOT FLUSHES PER WEEK (MEAN)", "setting": "Week 14", "result": 37.8}, {"measurement": "NUMBER OF MODERATE TO SEVERE HOT FLUSHES PER WEEK (MEAN)", "setting": "Week 14", "result": 34.2}, {"measurement": "WEIGHTED SEVERITY SCORE OF HOT FLUSHES PER WEEK (MEAN)", "setting": "Week 14", "result": 87.0}, {"measurement": "NUMBER OF ALL HOT FLUSHES PER WEEK (MEAN)", "setting": "Week 15", "result": 36.5}, {"measurement": "NUMBER OF MODERATE TO SEVERE HOT FLUSHES PER WEEK (MEAN)", "setting": "Week 15", "result": 33.7}]}]}
